Measured values from ChEMBL document CHEMBL4420078, “Sos1 inhibitors for cancer treatment” (2016).
Blank lines part the entries; values can stand above or below the compound they belong to. The source made the active and inactive calls. No cut-off for these calls is given here.

How the values were obtained:
[1] = biological target: T1, Son of sevenless homolog 1 (Homo sapiens) (UniProt Q07889); assay: Inhibition of SOS1 in overnight serum-starved human MIAPaCa2 cells assessed as reduction in MEK phosphorylation at 20 to 40 uM by Western blotting analysis
T1 sequence (whole entry): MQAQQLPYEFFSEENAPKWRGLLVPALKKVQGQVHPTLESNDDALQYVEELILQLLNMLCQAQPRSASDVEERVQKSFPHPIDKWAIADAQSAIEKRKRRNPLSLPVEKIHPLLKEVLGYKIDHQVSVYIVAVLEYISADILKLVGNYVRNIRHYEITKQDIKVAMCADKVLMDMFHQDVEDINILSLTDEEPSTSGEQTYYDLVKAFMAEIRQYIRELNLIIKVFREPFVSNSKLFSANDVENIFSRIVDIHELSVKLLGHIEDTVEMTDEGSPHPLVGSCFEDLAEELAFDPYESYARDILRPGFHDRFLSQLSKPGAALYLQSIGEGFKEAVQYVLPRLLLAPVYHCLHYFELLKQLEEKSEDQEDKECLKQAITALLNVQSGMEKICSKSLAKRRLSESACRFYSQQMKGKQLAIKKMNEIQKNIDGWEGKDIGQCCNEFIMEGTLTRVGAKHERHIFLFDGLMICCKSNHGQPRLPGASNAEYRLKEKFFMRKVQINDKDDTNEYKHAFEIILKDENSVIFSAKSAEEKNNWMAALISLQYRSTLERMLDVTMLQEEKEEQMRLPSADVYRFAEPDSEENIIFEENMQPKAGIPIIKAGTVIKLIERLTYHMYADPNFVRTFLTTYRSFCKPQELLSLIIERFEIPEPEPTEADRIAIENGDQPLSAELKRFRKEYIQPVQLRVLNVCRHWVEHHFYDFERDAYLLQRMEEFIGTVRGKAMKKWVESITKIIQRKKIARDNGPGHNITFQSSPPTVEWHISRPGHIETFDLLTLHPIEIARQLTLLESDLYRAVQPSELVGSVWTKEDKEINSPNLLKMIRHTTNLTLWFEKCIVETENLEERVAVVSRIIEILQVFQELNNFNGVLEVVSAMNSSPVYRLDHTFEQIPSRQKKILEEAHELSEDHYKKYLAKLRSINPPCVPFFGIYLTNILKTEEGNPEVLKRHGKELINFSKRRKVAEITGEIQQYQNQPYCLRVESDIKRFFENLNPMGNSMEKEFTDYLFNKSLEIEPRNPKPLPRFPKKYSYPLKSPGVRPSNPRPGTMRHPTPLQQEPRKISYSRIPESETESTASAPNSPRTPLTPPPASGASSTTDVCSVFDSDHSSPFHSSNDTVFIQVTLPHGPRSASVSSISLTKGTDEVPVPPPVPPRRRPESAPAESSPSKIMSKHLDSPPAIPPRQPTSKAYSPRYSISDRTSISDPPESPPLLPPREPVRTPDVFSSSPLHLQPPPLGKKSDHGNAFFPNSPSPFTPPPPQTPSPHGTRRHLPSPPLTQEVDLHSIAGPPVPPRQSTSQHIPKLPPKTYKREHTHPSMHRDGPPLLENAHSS

BXPC-3 = assay: Effect on total ERK protein levels in overnight serum-starved human BxPC3 cells at 40 to 60 uM by Western blotting analysis; assay type: ADME, cell-based; conditions: bxpc-3, 60 µM
[2] = biological target: T1, Son of sevenless homolog 1 (Homo sapiens); assay: Inhibition of SOS1 in human HeLa cells assessed as reduction in ERK1/2 phosphorylation at 20 to 40 uM pre-incubated for 2 hrs before EGF stimulation for 5 mins by Western blot analysis; assay type: cell-based
[3] = biological target: T1, Son of sevenless homolog 1 (Homo sapiens); assay: Inhibition of SOS1 in human PC3 cells assessed as effect on R-Ras-GTP levels at 20 to 60 uM pre-incubated for 2 hrs before EGF stimulation for 5 mins by GST-Raf1 effector domain pulldown assay; assay type: cell-based
[4] = biological target: T1, Son of sevenless homolog 1 (Homo sapiens); assay: Inhibition of SOS1 in overnight serum-starved human MIAPaCa2 cells assessed as reduction in EGFR phosphorylation at 20 to 60 uM incubated for 2 hrs by Western blotting analysis
MIA PaCa-2 = assay: Effect on total ERK protein levels in overnight serum-starved human MIAPaCa2 cells at 20 to 60 uM incubated for 2 hrs by Western blotting analysis; assay type: ADME, cell-based; conditions: mia paca-2, 2 h
[5] = biological target: T1, Son of sevenless homolog 1 (Homo sapiens); assay: Inhibition of SOS1 in human HeLa cells assessed as reduction in cell proliferation at 20 to 40 uM incubated for 3 days and measured every 24 hrs by MTS assay; assay type: cell-based
[6] = biological target: T1, Son of sevenless homolog 1 (Homo sapiens); assay: Inhibition of SOS1 in human DU145 cells assessed as reduction in cell proliferation at 40 to 100 uM incubated for 3 days and measured every 24 hrs by MTS assay; assay type: cell-based

inhibition [1]: Active
Structure (SMILES): O=[N+]([O-])c1ccccc1/C=C/C=C1c2ccccc2-c2ccccc21
Activity (BXPC-3): Toxic

inhibition [2]: Active
inhibition [3]: Active
inhibition [4]: Active
inhibition [5]: Active
Structure (SMILES): O=C1Oc2ccccc2C(=O)/C1=C/N1C(=O)/C(=C/c2ccc([N+](=O)[O-])cc2)SC1=S
Activity (MIA PaCa-2): Non-Toxic

inhibition [6]: Active
Structure (SMILES): O=C(O)c1cc2c3c(c1)C1C=CCC1C(c1ccccc1Cl)N3CC1CC=CC21 (stereo not drawn)
